Results on three compounds are retold here after patent US7189754B2, “Pyrrolidine ester derivatives with oxytocin modulating activity” (Applied Research Systems ARS Holding NV, priority 2001, dated 2007).

The IC50 is the point on the concentration scale where inhibition reaches its midpoint.

The assay deals with T1, human Oxytocin (hOT) receptor (Homo sapiens, UniProt P30559).
T1 construct: expressed in transfected cells; host or cells: HEK293EBNA
T1 sequence (P30559 1-389): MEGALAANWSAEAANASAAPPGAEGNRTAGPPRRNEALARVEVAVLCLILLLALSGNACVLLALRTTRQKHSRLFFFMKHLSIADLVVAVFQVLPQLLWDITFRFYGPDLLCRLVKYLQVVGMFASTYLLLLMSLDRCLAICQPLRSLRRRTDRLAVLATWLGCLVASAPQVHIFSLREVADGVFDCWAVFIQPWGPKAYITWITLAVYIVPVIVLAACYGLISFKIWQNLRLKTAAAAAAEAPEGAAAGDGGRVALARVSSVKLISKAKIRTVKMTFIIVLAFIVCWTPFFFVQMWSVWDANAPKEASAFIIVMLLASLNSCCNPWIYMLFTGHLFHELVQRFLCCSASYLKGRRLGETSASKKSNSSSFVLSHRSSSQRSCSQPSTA
Nature of the assay: In vitro competition binding assay on hOT receptor with scintillation proximity assay ([125I]-OVTA). As to conditions: HEK293EBNA membranes expressing hOT receptor, 0.2 nM [125I]-OVTA, SPA; read-out: Binding affinity human OT-R IC50. The method, then: a) In Vitro Competition Binding Assay on hOT Receptor with Scintillation Proximity Assay (see Cook, N. D. et al. Pharmaceutical Manufacturing International 1992; p.49–53)
This assay allows to determine the affinity of the test compounds for the human Oxytocin (hOT) receptor. Membranes from HEK293EBNA (cells expressing the hOT receptor) were suspended in buffer containing 50 mM Tris-HCl, pH 7.4, 5 mM MgCl2 and 0.1% BSA (w/v). The membranes (2–4 μg) were mixed with 0.1 mg SPA bead coated with wheat-germ aglutinin (WGA-PVT-Polyethylene Imine beads from Amersham) and 0.2 nM of the radiolabelled [^125I]-OVTA (OVTA being Ornithin Vasoactive, an analogue of OT for competitive binding experiments). Non-specific binding was determined in the presence of 1 μM Oxytocin. The total assay volume was 100 μl. The plates (Corning® NBS plate) were incubated at room temperature for 30 min and counted on a Mibrobeta® plate scintillation counter. Competitive binding was performed in presence of compounds of formula (I) at the following concentrations: 30 μM, 10 μM, 1 μM, 300 nM, 100 nM, 10 nM, 1 nM, 100 pM, 10 pM. The competitive binding data were analysed using the iterative, nonlinear, curve-fitting program, “Prism” (GraphPad Software, Inc).
The ability of the pyrrolidine derivatives of formula (I) to inhibit the binding of ^125I-OVTA to the OT-receptor was assessed using the above described in vitro biological assay. Representative values for some example compounds are given in Table 1, where the binding affinity of the compounds is expressed by the IC50 (μM) which is the concentration upon which 50% inhibition of OT-R is achieved. From these values, it can be derived that said test compounds according to formula (I) do show a significant binding to the oxytocin receptor.
For the compound `CON=C1C[C@@H](C(=O)OC)N(C(=O)c2ccc(-c3ccccc3)cc2)C1` (mixture of isomers) [Methyl (2S,4EZ)-1-([1,1′-biphenyl]-4-ylcarbonyl)-4-(methoxyimino)-2-pyrrolidinecarboxylate], the IC50 is 45 nM.

On to `CON=C1C[C@@H](C(=O)OC)N(C(=O)c2ccc(-c3ccccc3F)cc2)C1` (mixture of isomers) [Methyl (2S,4EZ)-4-(methoxyimino)-1-[(2′-fluoro[1,1′-biphenyl]-4-yl)carbonyl]-2-pyrrolidinecarboxylate], for which the IC50 came to 100 nM.

Take `CON=C1C[C@@H](C(=O)OC)N(C(=O)c2ccc(-c3ccccc3C)cc2)C1` [Methyl (2S,4EZ)-4-(methoxyimino)-1-[(2′-methyl[1,1′-biphenyl]-4-yl)carbonyl]-2-pyrrolidinecarboxylate]: the IC50 was found to be 28 nM.
